Values joined by “and” are separate entries in the source; they are usually repeats but may differ in a detail not shown here. Equal entries are not always repeated.
Conditions: Liquid, Transpiration method

C1CCCCNCCC1 [octamethylenimine]
Conditions	vapor or sublimation pressure [kPa]
274.6 K	0.01266
278.3 K	0.01754
283.3 K	0.02575
288.3 K	0.03757
293.2 K	0.05489
298.1 K	0.07468
304.1 K	0.1162
309.1 K	0.1671
313.3 K	0.2073
318.1 K	0.2813
323.4 K	0.3868

C1CCCNCCC1 [heptamethyleneimine]
Conditions	vapor or sublimation pressure
276.1 K	0.08722 kPa
279.6 K	0.1144 kPa
281.3 K	0.1316 kPa
285.2 K	0.1719 kPa
288.3 K	0.22 kPa
292.1 K	0.277 kPa
292.3 K	0.2658 kPa
295.2 K	0.3338 kPa
299 K	0.4239 kPa
299.2 K	0.4202 kPa
302.1 K	0.5212 kPa
306.1 K	0.6926 kPa
309 K	0.8283 kPa and 0.7923 kPa
313 K	1.016 kPa
317 K	1.311 kPa
319.8 K	1.44 kPa
322 K	1.585 kPa
324.9 K	1.97 kPa

C1CCCNCC1 [azacycloheptane]
Conditions	vapor or sublimation pressure [kPa]
275.3 K	0.2584
278.3 K	0.3225
281 K	0.3957
284.2 K	0.4858
287.3 K	0.604
290.2 K	0.7427
293.2 K	0.8989
296.2 K	1.051
302.2 K	1.525
305.2 K	1.824
308.1 K	2.177
311.2 K	2.409
314.2 K	3.025
317.2 K	3.485
321.2 K	4.037
